Test results reported in patent US4734275A, “Anti-curare agents” (priority 1986, dated 1988).
Like-named read-outs stand apart in the source and are kept apart here.

Experiments:
[1] = system: phrenic nerve-hemidiaphragm preparations; test: Antagonism of relaxant-induced neuromuscular block in vitro, rat phrenic nerve-hemidiaphragm; format: cell-based, male Sprague-Dawley rats; design: ED 50 of Antagonists, In Vitro: unit not given here; conditions: for Relative Molar Potency, In Vitro: 4-Aminopyridine = 1.0; for ED 50 of Antagonists, In Vitro: means + SEM of 4 experiments, concentration raising twitch tension to 50% of control in >90% steady state block
Description: (§1) In in vitro tests to determine neuromuscular potency, phrenic nerve-hemidiaphragm preparations from male Sprague-Dawley rats were suspended in modified Krebs solution. In vivo experiments focused on the sciatic nerve-tibialis anterior muscle preparations in male Sprague-Dawleyrats. In each case, stimulation of nerves was accomplished via bipolar platinum electrodes, with supramaximal impulses of 0.2 msec duration at 0.1 HZ, and the isometric twitches were continuously recorded. Greater than 90 % steady state neuromuscular block was achieved either by addition of appropriate concentrations (in vitro) or continuous i.v. infusions (in vivo) of either d-tubocurarine or pancuronium. Antagonism of the induced neuromuscular block was accomplished by the addition of increments of 4-AP, 3,4-DAP, LF-10 or LF-14.
(§2) **The concentration in vitro or the i.v. dose that will increase twitch
(§3) tension to 50% of control in the presence of the concentration or dose of
(§4) muscle relaxant that caused a >90% steady state block.

[2] = system: sciatic nerve-tibialis anterior muscle preparations; test: Antagonism of relaxant-induced neuromuscular block in vivo, rat sciatic nerve-tibialis anterior muscle; design: species or system male Sprague-Dawley rats; conditions: for Relative Molar Potency, In Vivo: 4-Aminopyridine = 1.0; for ED 50 of Antagonists, In Vivo / ED50: i.v., means + SEM of 4 experiments, dose raising twitch tension to 50% of control in >90% steady state block; for ED50: Rattus norvegicus, iv, read-out: ED 50 of Antagonists, In Vivo
Description: as §1, §2, §3, §4

central nervous system = test: Central nervous system stimulatory effects: pentobarbital-induced loss of righting reflex (LRR); format: in vivo, male Sprague-Dawley rats; conditions: for Loss of righting reflex, Onset / Loss of righting reflex, Duration: with 35 mg/kg pentobarbital s.c., LF-10, LF-14 1.1 mg/kg, 4-AP, 3,4-DAP 1.5 mg/kg, mean; for Loss of righting reflex, Onset: control 11.4; for Loss of righting reflex, Duration: control 71.9; for effect on pentobarbital induced LRR / barbiturate CNS effects (in words): with pentobarbital 35 mg/kg s.c.
Experimental: Tests were conducted to determine the stimulatory effects of the compounds of the present invention upon the central nervous system. Male Sprague-Dawley rats were injected subcutaneously with 35 mg/kg of pentobarbital alone, or together with 1.1 mg/kg of LF-10 or LF-14, or 1.5 mg/kg of 4-AP or 3,4-DAP (Foldes, et al., Anesthesiology 57:A-273, 1982). The time of onset and duration of the loss of righting reflex (LRR) was observed.

[3] = system: anticholinesterase activity; conditions: background; cited from earlier work
neuromuscular blocks = conditions: background; Bowman and Savage 1981; Agoston et al. 1978; cited from earlier work
[4] = background; Marshall 1982; cited from earlier work
[5] = molar basis, nondepolarizing muscle relaxants
[6] = neuromuscular blocks induced by curare

Compound	Relative Molar Potency, In Vitro ([1]; muscle relaxant Pancuronium)	Relative Molar Potency, In Vitro ([1]; muscle relaxant d-Tubocurarine)	Relative Molar Potency, In Vivo ([2]; muscle relaxant Pancuronium)	Relative Molar Potency, In Vivo ([2]; muscle relaxant d-Tubocurarine)	Loss of righting reflex, Onset (central nervous system)	Loss of righting reflex, Duration (central nervous system)	effect on pentobarbital induced LRR / barbiturate CNS effects (in words) (central nervous system)	ED50 ([2]; muscle relaxant Pancuronium)	ED50 ([2]; muscle relaxant d-Tubocurarine)	also measured
1,1-dimethyl-(3,4-pyridyl)-urea [LF-10]	3.4	4.3	2.3	7.5	14.8 min	63.7 min	some effect on shortening the duration of LRR			ED 50 of Antagonists, In Vitro ([1]; muscle relaxant Pancuronium): 0.5; ED 50 of Antagonists, In Vitro ([1]; muscle relaxant d-Tubocurarine): 0.4; ED 50 of Antagonists, In Vivo ([2]; muscle relaxant Pancuronium): 0.13 + 0.00 mg/Kg; ED 50 of Antagonists, In Vivo ([2]; muscle relaxant d-Tubocurarine): 0.09 + 0.00 mg/Kg
Nc1ccncc1N [3,4-Diaminopyridine, 3,4-diaminopyridine, reference compound]	2.7	2.1	0.8	1.6	13.3 min	78.9 min		0.18 mg/kg	0.12 mg/kg	
Nc1ccncc1 [4-Aminopyridine, 4-aminopyridine, reference compound]					15.2 min	42.0 min	significantly (p<0.001) reduce the central nervous system effects of barbiturates	0.13 mg/kg	0.17 mg/kg	anticholinesterase activity (in words) [3]: no anticholinesterase activity; reversal of muscle relaxants and antagonism of other neuromuscular blocks (in words) (neuromuscular blocks): not only reverse the side effects of clinically used muscule relaxants, but also antagonize the effects of the other neuromuscular blocks listed above; undesirable side effects (in words) [4]: elevated blood pressure, anxiety, insomnia, and a level of central nervous system stimulation which may manifest itself ultimately in convulsions
CN(C)C(=O)Nc1cnccc1N [LF-14, 1,1-Dimethyl-3-(4-amino-3-pyridyl)-urea]	17	17	8.2	9	12.4 min	75.7 min	substantially no effect on the pentobarbital induced LRR	0.04 mg/kg	0.04 mg/kg	neuromuscular potency / antagonism (in words), in vitro [1, 5]: greatest both in vitro and in vivo; molar potency relative to 4-AP, in vitro [1, 6]: 17 times that of 4-AP; neuromuscular potency / antagonism (in words), in vivo [2, 5]: greatest both in vitro and in vivo; molar potency relative to 4-AP, in vivo [2, 6]: 9 times that of 4-AP; stimulatory effects on the central nervous system (in words) (central nervous system; rat, in vivo): no stimulatory effects on the central nervous system
